How the values were obtained:
human PD-1/PD-L1 binding = biological target: T1, human PD-1/PD-L1 binding (Homo sapiens, UniProt Q9NZQ7); assay: Inhibition of human PD-1/PD-L1 binding (TR-FRET/HTRF); details: TR-FRET, PD-L1-His and PD-1-Fc; read-out: PD-1/PD-L1 binding IC50
T1 construct: PD-L1-His protein (19 to 238 amino acids) (Abcam #ab167713); purchased Abcam (PD-L1-His); R&D (PD-1-Fc) ab167713; 1086-PD
In short: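 PD-L1-His (aa 19–238, diluted to 10 nM) and PD-1-Fc (aa 25–167, diluted to 20 nM) incubated with compounds (10 μM or 1 μM top, 3-fold, 11 doses) 60 min at room temperature, then anti-6HIS Eu cryptate/anti-human IgG-XL665 added for 3 h RT or overnight 4 °C. HTRF 665/620 nm ratio gave inhibition and IC50.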

[1] = biological target: T2, PD-L1 protein on the surface of MC38-hPDL1 tumor cells (Homo sapiens, UniProt Q9NZQ7); assay: Induction of endocytosis of PD-L1 on the surface of tumor cells (flow cytometry); type: cell-based; details: 16 hours incubation; for Emax: MC38-hPDL1 cells, read-out: MC38 maximum endocytosis rate; for IC50: inducing endocytosis of PD-L1, MC38-hPDL1 cells, read-out: MC38 IC50
T2 construct: expressed in transfected cells; host or cells: MC38-hPDL1 (mouse colon cancer cells)
In short: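 IC50 comes from nonlinear fits of endocytosis rate, calculated from the loss of surface PE-anti-CD274 flow signal relative to vehicle. Cells were MC38 mouse colon cancer cells engineered to express high human PD-L1. Compound exposure lasted 16 h at 37 °C, 5% CO2.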

human PD-L1 protein = biological target: T3, human PD-L1 protein (Homo sapiens, UniProt Q9NZQ7); assay: Thermal shift: melting temperature of PD-L1 protein; type: binding; details: compound 10 μM, PD-L1 protein 2 μM, Tm minus DMSO vehicle control; read-out: ΔTm (° C.)
T3 construct: purchased Acro Biosystems PD1-H5229
In short: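 Human PD-L1 at 2 μM final was tested in […], 150 mM NaCl with SYPRO Orange, heated 25→95 °C at 0.03 °C/s in a PCR melt-curve run. Tm was taken per treatment; ΔTm is the shift relative to DMSO vehicle.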

[2] = test system: NFAT-luc2/PD1 Jurkat cells; assay: In vitro cytotoxicity on NFAT-luc2/PD1 Jurkat cells (CellTiter-Glo); type: cell-based; details: 72 hours; for IC50: Homo sapiens, Jurkat
Method: (§1) Test Embodiment 5. In Vitro Cytotoxicity of the Compounds of the Present Disclosure on NFAT-Luc2/PD1 Jurkat Cells and MC38-hPDL1 Cells
(§2) Experimental purpose: To test the in vitro cytotoxicity of compounds on NFAT-luc2/PD1 Jurkat cells and MC38-hPDL1 cells.
(§3) When the cells were cultured to an appropriate degree of confluency, the cells were collected, and the cells was adjusted in an appropriate cell concentration by complete medium, then the cell suspension was plated in a 96-well plate, 90 μL per well, and put in a 37° C., 5% CO2 incubator overnight; compound solutions of different concentrations were prepared by DMSO and medium, and a vehicle control was set; compound solutions were added to a 96-well plate, 10 μL per well, and put in a 37° C., 5% CO2 incubator and cultured for 72 hours. After that, CellTiter-Glo solution was added, the mixture was shaken and mixed evenly, incubated in the dark for 10 minutes, and a BioTek Synergy H1 microplate reader was used for reading.
(§4) Luminescence signal value was used to calculate the inhibition rate, and the concentration and inhibition rate were fitted by nonlinear regression curve using Graphpad Prism software to obtain IC50 values, as shown in the following table: […]

MC38-hPDL1 cells = assay: In vitro cytotoxicity on MC38-hPDL1 cells (CellTiter-Glo); type: cell-based, mouse; details: for MC38-hPDL1 inhibition rate (%): 72 hours; for IC50: Mus musculus, MC38-hPD-L1, 72 hours
Method: as §1, §2, §3, §4

[3] = test system: CHO-PDL1/Jurkat-PD1 cell pathway; assay: Inhibition of CHO-PDL1/Jurkat-PD1 cell pathway (NFAT luciferase reporter); type: cell-based; details: for EC50: 6 hours incubation, luciferase signal; for maximal fold induction: relative to the signal value of the non-dosed group, read-out: Maximum induction fold
Method: Test Embodiment 3. Inhibitory Effect of the Compounds of the Present Disclosure on CHO-PDL1/Jurkat-PD1 Cell Pathway
Experimental purpose: The purpose of this test embodiment was to test the inhibitory effect of compounds on the CHO-PDL1/Jurkat-PD1 cell pathway.
Experimental method: Two stably transfected cell lines were included in this experiment, CHO-K1 cells stably transfected with PD-L1 and Jurkat cells stably transfected with PD-1 and NFAT luciferase reporter genes. Compounds were incubated with the two cell lines. Then, due to the inhibitory effect on the PD-1/PD-L1 pathway, the activation degree of Jurkat cells changed, so that the level of the reporter gene NFAT in the downstream of Jurkat cells changed, and the level of NFAT was characterized by detecting the signal value of luciferase, so that the inhibitory effect of the test compound on CHO-PDL1/Jurkat-PD1 pathway was characterized.
CHO-PDL1 cells (Promega, #J1252) were cultured to a suitable cell density. After digestion, the cells were resuspended by complete medium to become a suitable density of cell suspension. The cell suspension was plated 100 μL per well on a 96-well plate (Corning, #3610), and placed in a 37° C., 5% CO2 incubator and incubated overnight, and assay medium (RPMI 1640+2% FBS, RPMI 1640 Cat. No.: Gibco, #22400089, FBS Cat. No.: Gibco, #10091148) was used to prepare compound solutions of different concentrations. NFAT-luc2/PD1 Jurkat cells (Promega, #J1252) were collected and resuspended to the appropriate cell density using assay medium. The supernatant of the CHO-PDL1 cell culture plate was aspirated, and 40 μL of the prepared compound solution and 40 μL of resuspended NFAT-luc2/PD1 Jurkat cells were added, and incubated in a 5% CO2 incubator at 37° C. for 6 hours, and the cell plate was taken out, then 40 μL of One-Glo reagent (Promega, #E6120) was added to each well, shaked and mixed well, incubated in the dark at room temperature for 10 minutes, then put into a microplate reader and the luminescence program was used to read the luminescence value of the cell plate.
The EC50 value was fitted according to the compound concentration and the luminescence signal value, and the maximum induction fold of each compound relative to the signal value of the non-dosed group was calculated, as shown in Table 3.

T1 sequence (Q9NZQ7 19-238): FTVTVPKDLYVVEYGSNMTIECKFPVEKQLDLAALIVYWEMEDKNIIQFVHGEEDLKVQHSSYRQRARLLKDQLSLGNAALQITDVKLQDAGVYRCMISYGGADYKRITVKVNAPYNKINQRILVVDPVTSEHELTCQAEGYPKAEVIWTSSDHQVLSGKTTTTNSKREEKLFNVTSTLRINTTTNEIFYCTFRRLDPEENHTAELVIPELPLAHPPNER
T3 sequence (Q9NZQ7 19-238 limits assumed): as the sequence (Q9NZQ7 19-238) above
T2 sequence (Q9NZQ7 19-290): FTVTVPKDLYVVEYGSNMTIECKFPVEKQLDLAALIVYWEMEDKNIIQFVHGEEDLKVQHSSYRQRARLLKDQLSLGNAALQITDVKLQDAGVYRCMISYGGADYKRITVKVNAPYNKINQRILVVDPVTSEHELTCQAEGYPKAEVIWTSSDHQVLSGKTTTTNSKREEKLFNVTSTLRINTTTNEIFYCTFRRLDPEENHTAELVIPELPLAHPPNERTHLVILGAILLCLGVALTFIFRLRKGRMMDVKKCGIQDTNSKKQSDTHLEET

IC50 (human PD-1/PD-L1 binding) | Emax [1] | IC50 [1] | ΔTm at 10 µM (human PD-L1 protein) | SMILES | Jurkat-PD1 inhibition rate (%) [2] | IC50 [2] | MC38-hPDL1 inhibition rate (%) (MC38-hPDL1 cells) | IC50 (MC38-hPDL1 cells) | EC50 [3] | maximal fold induction [3]
5.7 nM | 94% | 3.7 nM | 11.2 °C | COc1cc(C(=O)Nc2cccc(-c3cccc(NC(=O)c4nc5c(n4C)CCN(C)C5)c3Cl)c2C)ncc1CN[C@@H]1CCOC[C@@H]1F [Embodiment 30, N-(2-Chloro-3′-(5-((((3R,4R)-3-fluorotetrahydro-2H-pyran-4-yl)amino)methyl)-4-methoxypicolinamido)-2′-methyl-[1,1′-biphenyl]-3-yl)-1,5-dimethyl-4,5,6,7-tetrahydro-1H-imidazo[4,5-c]pyridine-2-carboxamide] | 99.0%^ | 2950 nM | 4.0% | > 10000 nM |  | 
2.2 nM |  |  |  | COc1cc(-c2cccc(-c3cccc(NC(=O)c4nc5c(n4C)CCN(C)C5)c3Cl)c2Cl)ccc1CNCC(=O)O [Embodiment 159, ((2′,2″-Dichloro-3″-(1,5-dimethyl-4,5,6,7-tetrahydro-1H-imidazo[4,5-c]pyridine-2-carboxamido)-3-methoxy-[1,1′:3′,1″-terphenyl]-4-yl)methyl)glycine] | 24% | > 10000 nM | 5% | > 10000 nM | 45 nM | 3.2
9.4 nM | 87% | 11 nM | 12 °C | COc1nc(-c2cccc(-c3cccc(NC(=O)c4nc5c(n4C)CCN(C)C5)c3Cl)c2C)ccc1CNC1COC1 [Embodiment 112, N-(2-Chloro-3′-(6-methoxy-5-((oxetan-3-ylamino)methyl)pyridin-2-yl)-2′-methyl-[1,1′-biphenyl]-3-yl)-1,5-dimethyl-4,5,6,7-tetrahydro-1H-imidazo[4,5-c]pyridine-2-carboxamide] | 57.0%^ | 8630 nM | 13.0%^ | > 10000 nM |  | 
 | 80% | 9.9 nM | 11 °C | COc1cc(C(=O)Nc2cccc(-c3cccc(NC(=O)c4nc5c(n4C)CCN(C)C5)c3Cl)c2C)ncc1CNc1ccnc(C)n1 [Embodiment 90, N-(2-Chloro-3′-(4-methoxy-5-(((2-methylpyrimidin-4-yl)amino)methyl)picolinamido)-2′-methyl-[1,1′-biphenyl]-3-yl)-1,5-dimethyl-4,5,6,7-tetrahydro-1H-imidazo[4,5-c]pyridine-2-carboxamide] | 99.0%^ | 1400 nM | 6.8% | > 10000 nM | 99 nM | 3.2
5 nM | 96% |  | 17.3 °C | COc1nc(-c2cccc(-c3cccc(NC(=O)c4nc5c(n4C)CCN(C)C5)c3Cl)c2Cl)ccc1CN1CC(CO)C1 [Embodiment 215, N-(2,2′-Dichloro-3′-(5-((3-(hydroxymethyl)azetidin-1-yl)methyl)-6-methoxypyridin-2-yl)-[1,1′-biphenyl]-3-yl)-1,5-dimethyl-4,5,6,7-tetrahydro-1H-imidazo[4,5-c]pyridine-2-carboxamide] | 85% | 4320 nM | 51% | 9340 nM |  | 
4 nM | 90% |  | 11.3 °C | COc1nc(-c2cccc(-c3cccc(NC(=O)c4nc5c(n4C)CCN(C)C5)c3Cl)c2Cl)ncc1CN1CC(NC(C)=O)C1 [Embodiment 224, N-(3′-(5-((3-Acetylaminoazetidin-1-yl)methyl)-4-methoxypyrimidin-2-yl)-2,2′-dichloro-[1,1′-biphenyl]-3-yl)-1,5-dimethyl-4,5,6,7-tetrahydro-1H-imidazo[4,5-c]pyridine-2-carboxamide] | 48% | 9500 nM | 1% | > 10000 nM |  | 

From patent publication US20230105212A1, “BIPHENYL DERIVATIVE INHIBITOR, PREPARATION METHOD THEREFOR AND USE THEREOF” (SHANGHAI HANSOH BIOMEDICAL CO., LTD., priority 2020, published 2023)
